Assay results reported in patent publication US20240252527A9, “NUCLEOSIDE DRUGS FOR THE TREATMENT OR PREVENTION OF CORONAVIRUS INFECTION AND THEIR USES” (Miracure Biotechnology Limited, priority 2022, published 2024).
Where two headings read alike, the source gives them in different places.

How the values were obtained:
[1] = system: 229E; test: 229E MRC5 CPE assay (cytopathic experiment); format: cell-based, coronavirus 229E (HCoV-229E)
Experimental: (§1) Cells were seeded into microplates at a certain density and cultured overnight in a incubator at 5% CO2, 37° C. The next day, double-diluted compound and virus were added. It was set up a cell control group (cells without treatment with a compound or virus infection), a virus control group (cells infected with virus, no compound treatment) and a culture medium control group (medium only). Cells were cultured in the incubator for 3 days (229E) or 7 days (OC43). Cytotoxicity experiments were performed under the same conditions as antiviral experiments, but without virus infection. Cell viability was tested using a cell viability assay kit Cell Titer Glo (Promega).
(§2) The antiviral activity and cytotoxicity of the compounds were expressed by the inhibition rate (%) and cell viability (%) of the compounds against virus-induced cytopathic effects at different concentrations, respectively. Nonlinear fitting analysis on the inhibition rate and cell viability of the compounds were carried out with the GraphPad Prism, and the half effective concentration (EC50), the […] effective concentration (EC90), the half cytotoxic concentration (CC50) and the 90% cytotoxic concentration of the compound […] values were calculated.

[2] = system: OC43; test: OC43 Huh7 CPE assay (cytopathic experiment); format: cell-based, coronavirus OC43 (HCoV-OC43); conditions: for EC50: read-out: OC43 Huh7 CPE assay (μM) EC50; for EC90: read-out: OC43 Huh7 CPE assay (μM) EC90
Experimental: as §1, §2

[3] = Human coronavirus 229E, MRC5, 72 h, read-out: 229E MRC5 CPE assay (μM) EC50
[4] = Human coronavirus 229E, MRC5, 72 h, read-out: 229E MRC5 CPE assay (μM) EC90
[5] = Betacoronavirus 1, OC43, Huh-7, 168 h
[6] = Human coronavirus 229E, MRC5, 72 h; read-out: 229E MRC5 CPE assay (μM) EC50
[7] = Human coronavirus 229E, MRC5, 72 h; read-out: 229E MRC5 CPE assay (μM) EC90
[8] = Betacoronavirus 1, Huh-7, 168 h, Huh7 cells, OC43 virus, 7 days, Cell Titer Glo

| SMILES | EC50 [1, 3] [µM] | EC90 [1, 4] [µM] | EC50 [2, 5] [µM] | EC90 [2, 5] [µM] | EC50 [1, 6] [µM] | EC90 [1, 7] [µM] | EC50 [2, 8] [µM] | EC90 [2, 8] [µM] |
| --- | --- | --- | --- | --- | --- | --- | --- | --- |
| CCCN(CCC)S(=O)(=O)c1ccc(C(=O)O[C@@H]2[C@@H]3OP(=O)(O)OC[C@H]3O[C@@]2(C#N)c2ccc3c(N)ncnn23)cc1 [Compound 158] | > 0.5 | > 0.5 | > 0.5 | > 0.5 |  |  |  |  |
| CC(C)OC(=O)C(C)(C)N[P@](=O)(OCOC(=O)C(C)(C)C)OC[C@H]1O[C@@](C#N)(c2ccc3c(N)ncnn23)[C@H](O)[C@@H]1O [Compound 194] | 0.1 to 0.5 | > 0.5 | 0.1 to 0.5 | > 0.5 |  |  |  |  |
| CCC(CC)COC(=O)[C@H](C)N[P@](=O)(OC[C@H]1O[C@@](C#N)(c2ccc3c(N)ncnn23)[C@H](O)[C@@H]1O)Oc1ccc(C[C@H](NC(=O)OCc2ccccc2)C(=O)OC2CCCC2)cc1 [Compound 219] |  |  |  |  | > 0.5 | > 0.5 | > 0.5 | > 0.5 |
| CC(C)(C)C(=O)OCO[P@@]1(=O)OCC2O[C@@](C#N)(c3ccc4c(N)ncnn34)[C@H](O)[C@@H]2O1 (some centres unmarked) [Compound 197] | 0.1 to 0.5 | > 0.5 | > 0.5 | > 0.5 |  |  |  |  |
| CCCC(CCC)C(=O)OCO[P@](=O)(N[C@@H](Cc1ccccc1)C(=O)OCC)OC[C@H]1O[C@@](C#N)(c2ccc3c(N)ncnn23)[C@H](O)[C@@H]1O [Compound 137] | < 0.1 | 0.1 to 0.5 | < 0.1 | < 0.1 |  |  |  |  |
| CCCC(CCC)C(=O)OCO[P@@](=O)(N[C@@H](C)C(=O)OCC(CC)CC)OC[C@H]1O[C@@](C#N)(c2ccc3c(N)ncnn23)[C@H](O)[C@@H]1O [Compound 071] | < 0.1 | < 0.1 | < 0.1 | < 0.1 |  |  |  |  |
| CCC(CC)COC(=O)[C@H](C)NP(=O)(OCOC(=O)c1cccnc1)OC[C@H]1O[C@@](C#N)(c2ccc3c(N)ncnn23)[C@H](O)[C@@H]1O (some centres unmarked) [Compound 175] | > 0.5 | > 0.5 | > 0.5 | > 0.5 |  |  |  |  |
| CCCN(CCC)S(=O)(=O)c1ccc(C(=O)OCO[P@@]2(=O)OCC3O[C@@](C#N)(c4ccc5c(N)ncnn45)[C@H](O)[C@@H]3O2)cc1 (some centres unmarked) [Compound 156] | 0.1 to 0.5 | > 0.5 | > 0.5 | > 0.5 |  |  |  |  |
| CCCN(CCC)S(=O)(=O)c1ccc(C(=O)OCO[P@@](=O)(N[C@@H](C)C(=O)OCC(CC)CC)OC[C@H]2O[C@@](C#N)(c3ccc4c(N)ncnn34)[C@H](O)[C@@H]2O)cc1 [Compound 161] | > 0.5 | > 0.5 | > 0.5 | > 0.5 |  |  |  |  |
| CC(C)OC(=O)C(C)(C)NP(=O)(OCOC(=O)C(C)(C)C)OC[C@H]1O[C@@](C#N)(c2ccc3c(N)ncnn23)[C@H](O)[C@@H]1O (some centres unmarked) [Compound 195] | 0.1 to 0.5 | > 0.5 | 0.1 to 0.5 | > 0.5 |  |  |  |  |
| CCCC(CCC)C(=O)OCO[P@@](=O)(OC[C@H]1O[C@@](C#N)(c2ccc3c(N)ncnn23)[C@H](O)[C@@H]1O)Oc1ccc(C[C@H](NC(=O)OCc2ccccc2)C(=O)OC2CCCC2)cc1 [Compound 227] |  |  | > 0.5 | > 0.5 | > 0.5 | > 0.5 |  |  |
| CCCC(CCC)C(=O)OCO[P@@]1(=S)OC[C@H]2O[C@@](C#N)(c3ccc4c(N)ncnn34)[C@H](O)[C@@H]2O1 [Compound 144] |  |  | > 0.5 | > 0.5 | > 0.5 | > 0.5 |  |  |
| CC(C)OC(=O)C(C)(C)N[P@@](=O)(OCOC(=O)CCCc1ccccc1)OC[C@H]1O[C@@](C#N)(c2ccc3c(N)ncnn23)[C@H](O)[C@@H]1O [Compound 269] | > 0.5 | > 0.5 | > 0.5 | > 0.5 |  |  |  |  |
| CCCC(CCC)C(=O)OCO[P@@](=O)(N[C@@H](C)C(=O)OCC)OC[C@H]1O[C@@](C#N)(c2ccc3c(N)ncnn23)[C@H](O)[C@@H]1O [Compound 098] | < 0.1 | < 0.1 | < 0.1 | 0.1 to 0.5 |  |  |  |  |
| CCCC(CCC)C(=O)OCNc1ncnn2c([C@]3(C#N)O[C@H](COP(=O)(OCOC(=O)C(CCC)CCC)OCOC(=O)C(CCC)CCC)[C@@H](O)[C@H]3O)ccc12 [Compound 155] | 0.1 to 0.5 | > 0.5 | > 0.5 | > 0.5 |  |  |  |  |
| N#C[C@@]1(c2ccc3c(N)ncnn23)O[C@@H]2CO[P@](=O)(OCOC(=O)C3CCCC3)O[C@H]2[C@H]1O [Compound 261] | 0.1 to 0.5 | > 0.5 | > 0.5 | > 0.5 |  |  |  |  |

| SMILES | EC50 [1, 3] [µM] | EC90 [1, 4] [µM] | EC50 [2, 5] [µM] | EC90 [2, 5] [µM] | EC50 [1, 6] [µM] | EC90 [1, 7] [µM] | EC50 [2, 8] [µM] | EC90 [2, 8] [µM] |
| --- | --- | --- | --- | --- | --- | --- | --- | --- |
| CC(C)OC(=O)CO[P@@]1(=S)OC[C@H]2O[C@@](C#N)(c3ccc4c(N)ncnn34)[C@H](O)[C@@H]2O1 [Compound 150] |  |  | > 0.5 | > 0.5 | > 0.5 | > 0.5 |  |  |
| CCC(CC)COC(=O)[C@H](C)NP(=O)(OCOC(=O)C(C)C)OC[C@H]1O[C@@](C#N)(c2ccc3c(N)ncnn23)[C@H](O)[C@@H]1O (some centres unmarked) [Compound 104] | > 0.5 | > 0.5 | > 0.5 | > 0.5 |  |  |  |  |
| N#C[C@@]1(c2ccc3c(N)ncnn23)O[C@@H]2COP(=O)(O)O[C@H]2[C@H]1OC(=O)CCCc1ccccc1 [Compound 260] | 0.1 to 0.5 | 0.1 to 0.5 | > 0.5 | > 0.5 |  |  |  |  |
| CCCC(CCC)C(=O)OCO[P@](=O)(OC[C@H]1O[C@@](C#N)(c2ccc3c(N)ncnn23)[C@H](O)[C@@H]1O)Oc1ccccc1 [Compound 223] |  |  | > 0.5 | > 0.5 | 0.1 to 0.5 | > 0.5 |  |  |
| CCC(CC)COC(=O)[C@H](C)N[P@@](=O)(OC[C@H]1O[C@@](C#N)(c2ccc3c(N)ncnn23)[C@H](O)[C@@H]1O)Oc1ccc(C[C@H](NC(=O)OCc2ccccc2)C(=O)OC2CCCC2)cc1 [Compound 218] |  |  |  |  | > 0.5 | > 0.5 | > 0.5 | > 0.5 |
| CCN(CC)Cc1cc(Nc2ccnc3cc(Cl)ccc23)ccc1O[P@](=O)(N[C@@H](C)C(=O)OC(C)C)OC[C@H]1O[C@@](C#N)(c2ccc3c(N)ncnn23)[C@H](O)[C@@H]1O [Compound 086] |  |  |  |  | > 0.5 | > 0.5 | > 0.5 | > 0.5 |
| CCCN(CCC)S(=O)(=O)c1ccc(C(=O)OCOP(=O)(NC(C)(C)C(=O)OC(C)C)OC[C@H]2O[C@@](C#N)(c3ccc4c(N)ncnn34)[C@H](O)[C@@H]2O)cc1 (some centres unmarked) [Compound 163] | > 0.5 | > 0.5 | > 0.5 | > 0.5 |  |  |  |  |
| CCC(CC)COC(=O)[C@H](C)N[P@@]1(=O)OC[C@H]2O[C@@](C#N)(c3ccc4c(N)ncnn34)[C@H](O)[C@@H]2O1 [Compound 140] | > 0.5 | > 0.5 | > 0.5 | > 0.5 |  |  |  |  |
| N#C[C@@]1(c2ccc3c(N)ncnn23)O[C@@H]2CO[P@](=O)(Oc3ccccc3)O[C@H]2[C@H]1O [Compound 221] |  |  | > 0.5 | > 0.5 | > 0.5 | > 0.5 |  |  |
| CCOC(=O)[C@H](C)N[P@](=O)(OC[C@H]1O[C@@](C#N)(c2ccc3c(N)ncnn23)[C@H](O)[C@@H]1O)Oc1ccc(Nc2ccnc3cc(Cl)ccc23)cc1CN(CC)CC [Compound 088] |  |  |  |  | > 0.5 | > 0.5 | > 0.5 | > 0.5 |
| CCC(CC)COC(=O)[C@H](C)NP(=O)(OCOC(=O)C(C)(C)C)OC[C@H]1O[C@@](C#N)(c2ccc3c(N)ncnn23)[C@H](O)[C@@H]1O (some centres unmarked) [Compound 193] | 0.1 to 0.5 | > 0.5 | 0.1 to 0.5 | > 0.5 |  |  |  |  |
| CCCC(CCC)C(=O)OCO[P@@]1(=O)OC[C@H]2O[C@@](C#N)(c3ccc4c(N)ncnn34)[C@H](O)[C@@H]2O1 [Compound 129] | < 0.1 | < 0.1 | < 0.1 | > 0.5 |  |  |  |  |
| CCC(CC)COC(=O)[C@H](C)N[P@@](=O)(OCCN(CC)CCCC(C)Nc1ccnc2cc(Cl)ccc12)OC[C@H]1O[C@@](C#N)(c2ccc3c(N)ncnn23)[C@H](O)[C@@H]1O (some centres unmarked) [Compound 068] | > 0.5 | > 0.5 | > 0.5 | > 0.5 |  |  |  |  |
| CCCC(CCC)C(=O)OCO[P@](=O)(NC(C)(C)C(=O)OC(C)C)OC[C@H]1O[C@@](C#N)(c2ccc3c(N)ncnn23)[C@H](O)[C@@H]1O [Compound 122] | 0.1 to 0.5 | 0.1 to 0.5 | 0.1 to 0.5 | 0.1 to 0.5 |  |  |  |  |
| CCCC(CCC)C(=O)OCO[P@](=O)(OC[C@H]1O[C@@](C#N)(c2ccc3c(N)ncnn23)[C@H](O)[C@@H]1O)Oc1cccc2ccccc12 [Compound 225] |  |  | > 0.5 | > 0.5 | > 0.5 | > 0.5 |  |  |
| CCCC(CCC)C(=O)OCO[P@](=O)(OC[C@H]1O[C@@](C#N)(c2ccc3c(N)ncnn23)[C@H](O)[C@@H]1O)Oc1ccc(C[C@H](NC(=O)OCc2ccccc2)C(=O)OC2CCCC2)cc1 [Compound 226] |  |  | > 0.5 | > 0.5 | > 0.5 | > 0.5 |  |  |
